Reference: patent publication US9228175B2, “Genes encoding a novel type of lysophophatidylcholine acyltransferases and their use to increase triacylglycerol production and/or modify fatty acid composition” (National Research Counsel of Canada, priority 2006, dated 2016)

Assays:
LCA1 = biological target: T1, LCA1 (Saccharomyces cerevisiae, UniProt Q08548); assay: Zn^2+ / Mg^2+ effect on LPCAT activity of LCA1 (in vitro assay, microsomes of lca1Δ over-expressing LCA1); type: biochemical; settings: concentration ranging from 5 to 40 μM (data not shown)
T1 construct: Saccharomyces cerevisiae YOR175c ORF was PCR-amplified; made in house; host or cells: S. cerevisiae YOR175c deletion strain Y02431 (lca1Δ), pYES2.1, galactose induction; microsomal fraction
T1 sequence (Q08548 1-619): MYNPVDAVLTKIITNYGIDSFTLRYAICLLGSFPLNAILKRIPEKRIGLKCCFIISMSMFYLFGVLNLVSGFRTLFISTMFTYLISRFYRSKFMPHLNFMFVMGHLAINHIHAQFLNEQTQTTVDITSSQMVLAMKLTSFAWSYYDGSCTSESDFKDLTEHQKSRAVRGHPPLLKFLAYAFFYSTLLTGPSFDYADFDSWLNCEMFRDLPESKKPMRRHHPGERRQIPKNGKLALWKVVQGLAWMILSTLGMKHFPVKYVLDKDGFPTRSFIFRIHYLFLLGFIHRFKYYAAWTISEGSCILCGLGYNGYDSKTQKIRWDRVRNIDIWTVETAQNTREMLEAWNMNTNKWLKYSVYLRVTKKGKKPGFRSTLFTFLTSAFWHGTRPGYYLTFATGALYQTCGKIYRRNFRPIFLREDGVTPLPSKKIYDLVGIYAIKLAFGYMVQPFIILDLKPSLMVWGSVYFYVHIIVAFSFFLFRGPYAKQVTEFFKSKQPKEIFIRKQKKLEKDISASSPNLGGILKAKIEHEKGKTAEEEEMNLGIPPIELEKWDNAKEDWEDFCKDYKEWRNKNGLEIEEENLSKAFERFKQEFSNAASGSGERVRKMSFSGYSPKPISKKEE
Experimental: (§1) Microsomal preparation: Yeast strains were first grown in 15 ml of SC-Leu-His-Ura medium containing 2% glucose. Protein expression induction was carried out as described in Invitrogen manufacturer manual for yeast expression vector pYES2.1. After 24 hours of growth in SC+2% galactose+1% raffinose induction conditions, the cells were washed, first with distilled water and then with wall-breaking buffer (50 mM Tris-HCl, 1 mM EDTA, 0.6 M sorbitol, pH 7.4, 1 mM DTT). After centrifugation at 4,000 rpm (Eppendorf Centrifuge 5145C), the cells were resuspended in 1 ml wall-breaking buffer with 10 μl yeast protease cocktail (Sigma), and shaken vigorously in the presence of acid-washed glass beads (diameter 0.5 mm). The resultant homogenate was centrifuged at 12,000 rpm for ten minutes at 4° C. The decanted supernatant was further centrifuged at 100,000×g for 90-120 minutes at 4° C. The supernatant was discarded, and the pellet was suspended in homogenization buffer containing 20% glycerol and frozen at −80° C. until use. Protein concentration was measured using Bio-Rad Protein Assay Kit for final enzyme activity calculation.
(§2) In Vitro Assay of LPCAT activity: LPCAT substrate specificity was determined by measuring incorporation of [^14C] lysophosphatidylcholine or [^14C] palmitoyl-CoA into phosphatidylcholine. All assays were performed at least twice. For lysophospholipid substrate specificity assessment, 400 μl HEPES buffer contained 3 μg microsomal protein, 50 μM of lysophospholipid substrates and 112.5 μM [^14C] palmitoyl-CoA (5.5 nCi/nmol). For acyl-CoA substrate selectivity analysis, 400 μl HEPES reaction buffer (pH7.4, 0.1 M) contained 3 μg microsomal protein, 50 μM acyl-CoA and 112.5 μM [^14C] […] (1.35 nCi/nmol). Reaction was allowed for 2 minutes at 30° C. with 100 rpm shaking. The reaction products were extracted with chloroform/methanol (2/1, v/v) and separated with Merck silica G60 TLC plates. Spots corresponding to different phospholipid species products were scraped off and ^14C incorporation were scintillation counted. Different concentrations of ZnCl2 were added in to reactions for Zn^2+ inhibitory effect assay.
Results are expressed as means±S.D. The lca1Δ over-expressing LCA1 was used to assess Zn^2+ effect. The reactions contained 5.6 μM palmitoyl-LPC (1.35 nCi/nmol), 1.5 μg microsomal proteins, 0.1 M HEPES (pH 7.4), 11.25 μM stearyl-CoA and indicated concentration of ZnCl2. The reaction was stopped after two minutes by adding 2 ml of chloroform/methanol solution (2:1).

[1] = system: parental (WT) yeast strain; assay: Lyso-PAF and lyso-PC sensitivity plate test, parental strain; type: cell-based, Saccharomyces cerevisiae; settings: plate assay
Experimental: (§3) Cells were frown first in SC-URA+2% glucose media overnight then in protein expression induction media for six hours. Cultures were diluted to OD600 value of OD600 0.5, 1, 2, 3, respectively, from which 5 μl were inoculated (from left to right) onto YPD plate containing lyso-PAF or lyso-PC. The plates were incubated at 28° C. for 36 hours.
(§4) Lyso-PAF sensitivity: Yeast strains Y02431 over-expressing LCA1 or harboring empty vector were first grown in 15 ml of SC-ura medium containing 2% glucose then transferred to SC-ura+2% galactose and 1% raffinose. After 12 hours LCA1 expression induction, the culture was diluted to correspond to OD600 value of 0.5, 1, 2, 3, 4. Five μl of each dilution was spotted to a YPD plate supplemented with varying concentrations of Lyso-PAF. The plates were incubated at 28° C. for two days.

[2] = system: lca1Δ yeast mutant (Y02431); type: cell-based, Saccharomyces cerevisiae
Experimental: as §3, §4
Lyso-PAF sensitivity: Yeast strains BY02431 carrying pYES 2.1-AtLPCATs or the empty vector were first grown in 15 ml of SC-Leu-His-ura medium containing 2% glucose. Yeast transformant strains of AtLPCATs were first grown in YPD overnight. Protein expression induction were carried out by protocol described in Invitrogen manufacturer manual for yeast expression vector pYES2.1. After 12 hours induction, 5 μl cultures were inoculated onto YPD plate with 10 μg/ml lysoPAF. The plates were incubated at 28° C. for two days. The final lysoPAF is 10/ml.

LCA1 (YOR175c) = biological target: T2, LCA1 (YOR175c) (Saccharomyces cerevisiae, UniProt Q08548); assay: In vitro assay of LPCAT activity: substrate specificity and kinetics of LCA1 (YOR175c); type: biochemical; settings: for Rate of acylation as % of the activity registered for LPC: [^14C] palmitoyl-CoA as acyl donor, 50 μM lysophospholipid, microsomes of lca1Δ expressing YOR175c
T2 construct: Saccharomyces cerevisiae YOR175c ORF was PCR-amplified; made in house; host or cells: S. cerevisiae YOR175c deletion strain Y02431 (lca1Δ), pYES2.1, galactose induction; microsomal fraction
T2 sequence (Q08548 1-619): T1 sequence (Q08548 1-619)
Experimental: FIG. 11 is a graph showing the substrate specificity of LCA1. The assays were performed with 3 μg microsomal protein from lca1Δ harboring an empty vector (V0) and lca1Δ expressing LCA1. The reaction contained 112.5 μm [^14C] palmitoyl-CoA (5.5 nCi/nmol) and 50 μM lysophospholipid substrate (LPA, LPC, LPE, LPG, LPI, and LPS). Reaction was allowed for two minutes with 100 rpm shaking. The results are presented as a mean of three assays.
as §1, §2

## [Mg+2] [Mg^2+]
LCA1
  Effect on LPCAT activity of LCA1: did not detect significant effect

## lysophosphatidylcholine [LPC]
[1]
  Level tolerated: up to 20 μg/ml
[2]; lca1Δ, plate assay
  Level tolerated: up to 20 μg/ml
LCA1 (YOR175c); [^14C] palmitoyl-CoA, LPA, LPC, LPE, LPG, LPI, LPS compared
  Acyltransferase activity among lysophospholipid substrates: highest activity

## CCCCCCCCCCCCCCCC(=O)OC[C@@H](O)COP(=O)([O-])OCC[N+](C)(C)C [LPC (16:0), palmitic (16:0)-LPC]
LCA1 (YOR175c); data not shown
  Concentration above which inhibitory effects on LPCAT activity are exerted: above 75 μM

## lysophosphatidylglycerol [LPG]
LCA1 (YOR175c)
  Rate of acylation as % of the activity registered for LPC: approximately 60%

## lysophosphatidylethanolamine [LPE]
LCA1 (YOR175c)
  Rate of acylation as % of the activity registered for LPC: ~20%

## 1-O-alkyl-sn-glycero-3-phosphocholine [lyso-PAF]
[2]; 10 ug/ml on YPD plate
  Growth of lpcat yeast mutant: incapable of growth
[2]; lca1Δ mutant, plate assay
  Concentration above which hypersensitivity is displayed: above 5 μg/ml

B1: LCA1: yeast (S. cerevisiae) LPC acyltransferase encoded by YOR175c, SEQ ID NO:2 (protein, listed as Saccharomyces cerevisiae)
chain: T1 sequence (Q08548 1-619)
LCA1 (YOR175c); Lineweaver-Burk double-reciprocal plot
  Vmax: 524 pmol/min/μg protein
LCA1 (YOR175c); Lineweaver-Burk double-reciprocal plot, read-out: apparent Km for acyl-CoA
  Km: 0.89 ± 0.25 µM
LCA1 (YOR175c); lyso-PAF as acyl acceptor
  Increase in lyso-PAF acyltransferase activity on over-expression: 86.3 fold
